# Experimental data as given in US8895512B2, “Composition for improving brain function and method for improving brain function” (Calpis Co., Ltd., priority 2010, dated 2014).
# Key:
# [1] = tested on: scopolamine-induced amnesia; conditions: male ddY mice; single oral dose of 5000 nmol/kg weight (1300 μg/kg) 60 min before Y-shaped maze test; scopolamine 1 mg/kg s.c. 30 min before test
# Procedure: Water (control), scopolamine alone, or 500 nmol/kg weight or 5000 nmol/kg weight of FP together with scopolamine, was administered to mice, and their respective prophylactic effects against amnesia were evaluated in accordance with a method described in Example 1.
# Male mice (n=15) of the ddY strain (approximately 7-week old) were used, and they took food and water ad lib. Test substances used were 500 mol/kg weight (130 μg/kg weight) or 5000 nmol/kg weight (1300 μg/kg weight) of FP. The test substances were administered to the mice once orally 60 minutes before the execution of a Y-shaped maze test for evaluation of spontaneous alternation behavior. […] The sequence of the arms each of the mice entered was recorded. The number of entries by each of the mice for each of the arms during the measurement time was counted to be the total number of entries. […] The percentage of spontaneous alternation behavior was calculated by dividing the number of spontaneous alternation behavior by a number obtained by subtracting 2 from the total number of entries, and multiplying a resultant number by 100. […] The measured values were expressed in the form of mean±standard error for each group. A significant difference between the control group and the scopolamine control group was calculated using Student's t-test. […]
# ACE = ACE (Homo sapiens, UniProt P12821); conditions: reported in reference 3; cited from earlier work
# ACE, sequence (P12821 30-1306, species assumed): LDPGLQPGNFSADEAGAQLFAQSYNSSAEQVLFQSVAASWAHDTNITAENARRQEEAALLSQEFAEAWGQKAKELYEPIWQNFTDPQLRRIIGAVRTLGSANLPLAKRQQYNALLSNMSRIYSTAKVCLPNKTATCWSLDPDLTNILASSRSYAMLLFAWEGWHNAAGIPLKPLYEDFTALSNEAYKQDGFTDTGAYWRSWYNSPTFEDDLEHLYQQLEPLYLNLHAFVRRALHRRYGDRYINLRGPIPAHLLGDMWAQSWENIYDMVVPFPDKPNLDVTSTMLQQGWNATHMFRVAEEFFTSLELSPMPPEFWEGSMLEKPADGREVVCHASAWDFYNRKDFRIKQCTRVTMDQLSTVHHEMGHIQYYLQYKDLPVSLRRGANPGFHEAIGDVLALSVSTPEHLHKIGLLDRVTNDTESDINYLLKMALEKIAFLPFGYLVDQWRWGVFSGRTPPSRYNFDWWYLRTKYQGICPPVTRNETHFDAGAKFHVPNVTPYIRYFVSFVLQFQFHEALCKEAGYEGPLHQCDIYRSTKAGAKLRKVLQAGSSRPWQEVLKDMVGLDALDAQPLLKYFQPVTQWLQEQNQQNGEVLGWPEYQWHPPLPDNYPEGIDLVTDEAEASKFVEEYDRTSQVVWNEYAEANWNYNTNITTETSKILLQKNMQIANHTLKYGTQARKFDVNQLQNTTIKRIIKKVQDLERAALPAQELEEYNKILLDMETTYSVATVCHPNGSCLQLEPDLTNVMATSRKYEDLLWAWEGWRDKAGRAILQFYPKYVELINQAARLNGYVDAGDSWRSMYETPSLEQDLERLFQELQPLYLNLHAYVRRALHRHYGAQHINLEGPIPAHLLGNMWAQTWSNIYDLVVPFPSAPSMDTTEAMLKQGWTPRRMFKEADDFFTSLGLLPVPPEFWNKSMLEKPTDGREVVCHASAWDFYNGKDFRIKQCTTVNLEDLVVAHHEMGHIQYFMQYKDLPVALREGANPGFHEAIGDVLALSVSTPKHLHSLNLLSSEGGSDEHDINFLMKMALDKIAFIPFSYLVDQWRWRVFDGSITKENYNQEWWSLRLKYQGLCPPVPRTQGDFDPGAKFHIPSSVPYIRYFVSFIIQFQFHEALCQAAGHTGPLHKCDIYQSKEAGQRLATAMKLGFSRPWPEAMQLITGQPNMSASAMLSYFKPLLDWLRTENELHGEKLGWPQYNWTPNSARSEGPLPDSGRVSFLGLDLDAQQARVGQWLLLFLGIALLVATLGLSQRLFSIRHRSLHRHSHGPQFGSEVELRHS
substance,measurement,setting,value
Phe-Pro,prophylactic activity against amnesia (percentage of spontaneous alternation behavior),[1],had a prophylactic activity against amnesia
same,hypotensive lowering activity based on ACE inhibitory activity,ACE,hypotensive lowering activity based on ACE inhibitory activity has been reported
